Assay results from patent publication US20150025131A1 (priority 2013, published 2015).
Entries after “also recorded” stand apart in the source; their conditions may differ.

Experiments:
[1] = tested on: ROS production from human neutrophils; assay: Luminol enhanced chemiluminescence oxidative burst, isolated neutrophils; type: cell-based; details: Neutrophil, serum opsonized zymosan, read-out: Myeloperoxidase dependent Oxidative Burst (IC50 μg/mL) Neutrophils
Protocol: Intracellular effect was determined using human peripheral whole blood phagocytes and isolated neutrophils and from mice peritoneum macrophages, where luminol-enhanced chemillumenescence assay was applied. The effect on myeloperoxidase independent ROS production was determined using lucigenin on murine macrophages RAW.267 cells.
Table 2. […] 267 cells (murine macrophages). DPI is used as standard drug. Reading presents mean±SD of three determinations.
Heparinized blood was obtained by vein puncture aseptically, from healthy volunteers (25-38 years age). The buffy coat containing polymorhonuclear neutrophils (PMNs) was collected by dextran sedimentation, and cells were isolated after the LSM density gradient centrifugation. […]
Luminol enhanced chemiluminescence technique was applied to study the effect of compound on ROS from phagocytes, Using whole blood, neutrophil and macrophages Briefly, 25 μL diluted whole blood (1:50 dilution in sterile HBSS^++) or 25 μL of PMNs (1×10^6), or 25 μL of isolated macrophages (1×10^6) were incubated with 25 μL of compound in triplicates and using three different concentrations (1, 10 and 100 μg/mL) using white 96 wells plates. […] Results were monitored as relative light unit (RLU) reading, with peak and total integral values set with repeated scans at 60 seconds intervals, and 1 second points measuring time.

[2] = tested on: knee joints of arthritic rats; assay: Adjuvant induced arthritis model, histopathology of knee joints (H & E); type: in vivo, Sprague Dawley rats; details: H & E staining
Protocol: (§1) All studies were carried out using Female Sprague Dawley (SD) rats weighing 150-250 gms. Animals were kept at 21±2° C. and on a 12-h light/dark cycle, received standardized pelleted diet and tap water. Experiments were performed under the ethical guidelines of the International Association for the study of pain in conscious animals. Each group contains 12 animals with randomly distributed weights into each treatment group.
Arthritis was induced by injecting freshly prepared 100 μL of 1 mg suspension of lyophilized Mycobacterium tuberculosis H37Ra (MT H37Ra; DIFCO Laboratories, Detroit, Mich., USA), subcutaneously at the rat tail base using sterile hypodermic needle. Inoculation was carried out under anesthesia with a combination of 20 mg/kg ketamine and 5 mg/kg xylazine, injected intraperitoneally. Compound and the reference drug were administered daily, intraperitoneally using sterile syringes. The positive control received vehicle (5% DMSO+PBS) or saline only; treatment groups received test compounds (25 mg/kg), whereas reference group received indomethacin (5 mg/kg). The doses of the test compounds were selected after preliminary dose finding studies. The treatment was started on the same day after vaccination.
The animals were sacrificed at the end of the experiment and samples were taken from the knee joints. Sample fixation were done using 10% formalin following decalcification. The samples were then processed, embedded, cut, mounted and stained with hematoxylin and eosin (H & E) dye for microscopic evaluation.

[3] = tested on: serum peroxide; assay: Adjuvant induced arthritis model, serum peroxide; type: in vivo, Sprague Dawley rats; details: AIA rats, daily intraperitoneal; Patuletin 25 mg/kg, indomethacin 5 mg/kg
Protocol: as §1
(§2) Arthritis was induced by injecting freshly prepared 100 μL of 1 mg suspension of lyophilized Mycobacterium tuberculosis H37Ra (MT H37Ra; DIFCO Laboratories, Detroit, Mich., USA), subcutaneously at the rat tail base using sterile hypodermic needle. […]
(§3) Peroxide (PO) and nitric oxide (NO), in serum were determined in the serum samples of both the normal and arthritic groups, using quantitative colorimetric assay kits, i.e., the Quantichrom ™ Nitric Oxide Assay Kit, and the Quantichrome™ Peroxide assay kit Diox-250 (BioAssay Systems, Hayward, Calif., USA). […] The samples were analyzed in duplicates using 96-well plate and the plate was read at 540 nm. The Quantichrome™ Peroxide assay kit Diox −250 system is an improved method which utilizes the oxidation of Fe^++ by peroxide present in the analyzed sample resulting in formation of purple complex that gives the accurate measure of peroxide level in the sample when read at 540-610 nm.

[4] = tested on: serum nitric oxide; assay: Adjuvant induced arthritis model, serum nitric oxide; type: in vivo, Sprague Dawley rats; details: AIA rats, daily intraperitoneal; Patuletin 25 mg/kg, indomethacin 5 mg/kg
Protocol: as §1, §2, §3

For `COc1c(O)cc2oc(-c3ccc(O)c(O)c3)c(O)c(=O)c2c1O` [Patuletin, 3,5,7,3′,4′-pentahydroxy-6-methoxy flavones], the IC50 [1] was 1.2 µg/mL, the “histopathology of knee joints (in words) versus arthritic control rats” value [2] was “less infiltration of lymphocytes and minimal bone destruction” and the “histopathology score of knee joints” value ([2]; normal control score 0, arthritic control score 4) was 2. The “level of peroxide in serum versus arthritic control group” value [3] was “decrease; also recorded: non-significant reduction” and the “level of nitric oxide in serum versus arthritic control group” value [4] was “marked reduction; also recorded: significant decrease”.
